Results: paper PMC12505902, “Inhibitors of trehalose-6-phosphate synthase activity in fungal pathogens compromise thermal tolerance pathways” (mBio, 2025)
Where two headings read alike, the source gives them in different places.

Tests used:
C. albicans (SC5314) = assay: MIC dose-response assay in YPD; type: cell-based
Protocol: We tested the effects of 4456dh on live cells by determining the minimal inhibitory concentration causing 80% growth reduction (MIC80). […] The MIC80 increased at 30°C to greater than 13 mM (Fig. S7A).
(§1) Fig 4 4456dh inhibits the growth of Candida and Cryptococcus species. […] 4456dh was administered at the concentrations indicated. Cultures were grown in YPD at the listed temperatures for 48 hours for Candida species and 72 hours for Cryptococcus species. Experimental temperatures reflect the temperatures at which the fungi experience heat stress. Left: relative growth of treated samples was calculated by averaging technical triplicates and normalizing the OD600 of each treated well to the average OD600 of the untreated WT controls, after the absorbance due to the compound was subtracted. The MIC80 values, calculated based on the OD600 values, are indicated in the white text on each heat map. Right: representative spot assays show the ability of cells to grow after exposure to 4456dh and indicate fungicidal activity of 4456dh. […]
102 determined by identifying the inflection point of the derivative data.
103 Tps1 Enzyme Activity Assay
104 The catalytic activity of C. albicans Tps1 and C. neoformans Tps1 was measured via a continuous
105 enzyme- coupled assay as previously reported ( 4) . […]
110 bottomed 96-well microtiter plates and the decrease in absorbance at 340 nm during the initial
111 reaction rate was recorded using a plate reader (Tecan). The decrease in absorbance was
112 analyzed for the first 200s of the kinetic reaction. […]
116 the overnight cultures was quantified by measuring the OD600 and corrected for the background
117 absorbance of the medium. Antifungal potency for 4456dh was assessed by minimum inhibitory […]
(§2) 124 technical replicates. Growth, as determined by a reading of absorbance at 600 nm, was
(§3) 125 normalized to untreated controls and was corrected for the absorbance of 4456dh in the YPD […]
(§4) 129 overnight cultures was quantified by measuring the OD600 and corrected for the background
(§5) 130 absorbance of the medium. Antifungal potency for 4456dh was assessed by minimum inhibitory […]

C. glabrata = assay: Fungicidal spot assay on compound-free YPD plates; type: cell-based
Protocol: as §1, with “map.” for “map. Right: representative spot assays show the ability of cells to grow after exposure to 4456dh and indicate fungicidal activity of 4456dh.”
as §2, §3, §4, §5
137 replicates. Growth, as determined by a reading of absorbance at 600 nm, was normalized to
138 untreated controls and was corrected for the absorbance of 4456dh in the YPD medium. […]
139 minimum inhibitory concentration causing 80% growth reduction, or MIC80, was determined based […]

**Q.** With `Cn1cc(-c2csc(NC(=O)Cc3ccccn3)n2)cn1` [Compound 4456dh] as the compound, how does the MIC80 (C. albicans (SC5314); 30°C, YPD) read?
**A.** no MIC was detected

**Q.** And the MIC80 (C. albicans (SC5314); Candida albicans, SC5314, 42°C, YPD, 48 hours, read-out: MIC80)?
**A.** 13 mM

**Q.** What about the MIC80 (C. albicans (SC5314); Candida albicans, SC5314, Supplemental Table 5, This publication, read-out: MIC80) of the same compound?
**A.** 5160 µg/mL

**Q.** And the fungicidal activity (C. glabrata; 30°C exposure)?
**A.** no MIC or fungicidal activity was detected

**Q.** What about the “concentration from which fungicidal activity starts” value (C. glabrata; 42°C exposure) of the same compound?
**A.** approximately 7.8 µM
